According to patent US20250205252A1, “7-KETOLITHOCHOLIC ACID FOR USE IN THE TREATMENT OF GUT DYSBIOSIS AND AS A PREBIOTIC” (NZP UK Limited, priority 2022, published 2025):
Read-outs that look alike come from different tables or passages of the source.

Columns and labels:
Bifidobacterium species = test: Batch culture fermentation of faecal slurry, flow-FISH enumeration (BIF); format: cell-based
Atopobium-Coriobacterium = test: Batch culture fermentation of faecal slurry, flow-FISH enumeration (ATO); format: cell-based
[1] = tested on: Desulfovibrionales and Dessulfuromonadales; test: Batch culture fermentation of faecal slurry, flow-FISH enumeration (DSV); format: cell-based
Total bacteria = test: Batch culture fermentation of faecal slurry, flow-FISH enumeration (Total); format: cell-based; conditions: 7-KLCA at 5 and 10 h, maltodextrin only at 5 h
[2] = tested on: SCFAs acetate, propionate, butyrate and lactate; format: cell-based; conditions: preliminary results from one donor, FIG. 3
[3] = tested on: Clostridium histolyticum (Chis150); test: 3-stage gut model, flow-FISH enumeration, Clostridium histolyticum; format: cell-based; conditions: FIG. 6
[4] = tested on: bacterial metabolites lactate, acetate, butyrate, propionate and valerate; test: 3-stage gut model, bacterial metabolite quantification by GC-MS; format: cell-based
Clostridium species = test: 3-stage gut model, bacterial composition by 16s rRNA sequencing, Clostridium; format: cell-based; conditions: after treatment; from 5.6%
[5] = format: in vivo, CD-1 mice
Description: The study design: • CTRL 1 Mice on normal diet for 60 days (5 mice) • CTRL 2 Mice on normal diet with 7KLCA at 10 mg/kg for 60 days (5mice) • CTRL 3 Mice on normal diet for 30 days, then 30 days on a high glucose diet (5 mice) • Treated Mice on normal diet for 30 days, then 30 days on a high glucose diet with 7KLCA throughout the study (5 mice)
Standard diet (10.6% fat J/J, 29.0% protein J/J and 60.4% carbohydrate J/J). High glucose diet (10.5% fat J/J, 16.4% protein J/J and 73.1% carbohydrate J/J). For all experimental group, free accesses to tap water The animals were kept in group of 5 animals/sex/group/cage in Plexiglas cages.
Experiments were carried out in 8-12-week-old male CD-1 mice according to the guidelines for the safe use and care of experimental animals in accordance with the Italian D.L. no. 116 of 27 Jan. 1992 and associated guidelines in the European Communities Council (86/609/ECC and 2010/63/UE) including the 3Rs concept (Kilkenny et al, 2010; McGrath et al, 2015). Animals were housed with ad libitum access to food and water and maintained on a 12-hour light/dark cycle. Experimental study groups were randomized and blinded. The animals in the control groups were handled in an identical manner to the treated group using the respective vehicle and the same volume of administration. Tested item formulation or vehicle was administered by oral gavage. The body weight was recorded once before the assignment to the experimental groups, on the first day of administration, and then weekly during the treatment.
The dose of 7-KLCA used in this study was 10 mg/kg/day. The vehicle used was DMSO in saline solution (NaCl 0.9%), 1/3 w/w. 7-KLCA was solubilised in DMSO (1 part w/w) and then resuspended in saline solution (3 parts w/w). This solution (200 μl/mouse) was prepared freshly every day and was kept under magnetic stirring during the daily administration.
The body weight was recorded once before the assignment to the experimental groups, on the first day of administration, and then weekly.
General clinical observations were performed at least once a day, at the same hour. The health condition of the animals was recorded.
After overnight fasting, blood of the animals was collected in serum separator tubes. FIGS. 10 and 13 show the change in body weight for the mice in the study.

Roseburia spp. (Rrec584) = test: 3-stage gut model, flow-FISH enumeration, Roseburia; conditions: across V1, V2 and V3; not statistically significant
[6] = tested on: Streptococcus spp. (Strp); test: 3-stage gut model, flow-FISH enumeration, Streptococcus; conditions: FIG. 6
[7] = tested on: total bacteria (EUB-I-II-III); test: 3-stage gut model, flow-FISH enumeration, total bacteria; conditions: for total bacteria (EUB-I-II-III) after treatment: proximal region (V1), 400 mg/day, 512 h (SS2)
bacterial metabolites = test: 3-stage gut model, metabolite spectra analysis by 1H NMR; conditions: V3 (distal colon)
[8] = tested on: Bifidobacterium spp. (Bif164); test: 3-stage gut model, flow-FISH enumeration, Bifidobacterium
[9] = tested on: Desulfovibrionales (DSV687); test: 3-stage gut model, flow-FISH enumeration, Desulfovibrionales; conditions: FIG. 6
[10] = tested on: Eubacterium rectale (Erec482); test: 3-stage gut model, flow-FISH enumeration, Eubacterium rectale; conditions: across V1, V2 and V3; not statistically significant
[11] = tested on: Bacteroides-Prevotella (BAC303); test: 3-stage gut model, flow-FISH enumeration, Bacteroides-Prevotella; conditions: 400 mg/day, 512 h; for Bacteroides-Prevotella (BAC303) population numbers after treatment: transverse region (V2)
[12] = tested on: Faecalibacterium prausnitzii (Fprau655); test: 3-stage gut model, flow-FISH enumeration, Faecalibacterium prausnitzii
[13] = tested on: Faecalibacterium prausnitzii; test: 3-stage gut model, bacterial composition by 16s rRNA sequencing, F. prausnitzii; conditions: after treatment
Bifidobacterium spp. = test: 3-stage gut model, bacterial composition by 16s rRNA sequencing, Bifidobacterium; conditions: after treatment, V3 (distal colon); lower than the baseline
Eubacterium rectale = test: 3-stage gut model, bacterial composition by 16s rRNA sequencing, Eubacterium rectale; conditions: after treatment, proximal region of the colon; before 4%
Eubacterium eligens = test: 3-stage gut model, bacterial composition by 16s rRNA sequencing, Eubacterium eligens; conditions: after treatment, 2% before
Dialister pneumosintes = test: 3-stage gut model, bacterial composition by 16s rRNA sequencing, Dialister pneumosintes; conditions: after treatment, before 7%
[14] = tested on: Bacteroides xylanisolvens; test: 3-stage gut model, bacterial composition by 16s rRNA sequencing, Bacteroides xylanisolvens; conditions: after treatment, transverse region; 2% before
[15] = V1, V2 and V3, not statistically significant
[16] = HGD+7KLCA vs CTRL 3 (HGD), day 60
[17] = normal diet 60 days, CTRL 2 vs CTRL 1

C[C@H](CCC(=O)O)[C@H]1CC[C@H]2[C@@H]3C(=O)C[C@@H]4C[C@H](O)CC[C@]4(C)[C@H]3CC[C@]12C [7-KLCA, 3α-hydroxy-7-oxo-5β-cholanic acid]
Bifidobacterium numbers (Bifidobacterium species; at T5, vessels containing 7-KLCA and maltodextrin): 7.45±0.16 Log10 CFU/mL
Bifidobacterium numbers (Bifidobacterium species; at T10, vessels containing 7-KLCA and maltodextrin): 7.55±0.21 Log10 CFU/mL
change in Bifidobacterium spp. (BIF) numbers, statistical significance (Bifidobacterium species; batch culture, 7-KLCA at 5 and 10 h): statistically significant increases
Bifidobacterium numbers (Bifidobacterium species; starting value (0 h), vessels containing 7-KLCA and maltodextrin): 6.48±0.14 Log10 CFU/mL
increases in pathogenic species Atopobium, Coriobacterium (Atopobium-Coriobacterium): no increases
increases in pathogenic species Desulfovibrionales and Desulfuromonadales [1]: no increases
change in total bacteria, statistical significance (Total bacteria): statistically significant increases
SCFA production (metabolic profile) [2]: promoting beneficial SCFA production
increases in pathogenic Clostridium histolyticum [3]: no statistically significant increases
change in acetate concentration ([4]; GC-MS, after treatment vs SS1): no statistically significant changes
change in butyrate concentration ([4]; GC-MS, after treatment vs SS1): no statistically significant changes
change in valerate concentration ([4]; GC-MS, after treatment vs SS1): no statistically significant changes
change in lactate concentration [4, 15]: increases measured
change in propionate concentration [4, 15]: increases measured
Clostridium species, of total bacterial species detected (Clostridium species): 4.5%
toxicity ([5]; 10 mg/kg, 60 days, oral gavage): no toxicity was observed
blood glucose levels ([5]; HGD+7KLCA vs CTRL 3 (HGD), after 60 days): significantly lower
HDL cholesterol levels [5, 16]: slight, though not significant, increase
LDL cholesterol levels [5, 16]: significantly reduced
total cholesterol levels [5, 16]: significantly reduced
weight gain ([5]; after switch to HGD diet (days 30-60), 10 mg/kg/day, CTRL 3 gained significantly more): gained a similar amount of weight to the mice on the normal diet
weight gains ([5]; initial 30-day period on standard diet, treated group vs CTRL 3): no significant difference
insulin levels ([5]; normal diet 30 days followed by HGD diet 30 days): trend of increased insulin levels
weight gains ([5]; normal diet 60 days, 10 mg/kg oral gavage (CTRL 2) vs CTRL 1): no significant difference
blood glucose levels [5, 17]: no significant difference
levels of HDL cholesterol [5, 17]: no significant difference
levels of LDL cholesterol [5, 17]: no significant difference
levels of total cholesterol [5, 17]: no significant difference
change in Roseburia spp. between baseline and after treatment (Roseburia spp. (Rrec584)): increase
increases in pathogenic Streptococcus [6]: no statistically significant increases
numbers of total bacteria after treatment versus Baseline ([7]; all three regions of the model, not significant): greater
total bacteria (EUB-I-II-III) after treatment [7]: 9.35±0.16 Log10 CFU/mL
alanine in 1H NMR spectrum (bacterial metabolites; after treatment): detected
acetate peaks in 1H NMR spectrum (bacterial metabolites; after vs before treatment): higher peaks
bacterial metabolite iso-leucine in 1H NMR spectrum (bacterial metabolites; after vs before treatment): presence after treatment
bacterial metabolite leucine in 1H NMR spectrum (bacterial metabolites; after vs before treatment): presence after treatment
propionate peaks in 1H NMR spectrum (bacterial metabolites; after vs before treatment): higher peaks
peaks of butyrate in 1H NMR spectrum (bacterial metabolites; after vs prior to treatment): greater
increase in Bifidobacterium spp. (Bif164) between Baseline and after treatment, statistical significance ([8]; 3-stage gut model): no statistically significant increases
observed change in Bifidobacterium spp. numbers after treatment ([8]; across all three stages (V1, 2 and 3)): observed increase
Bifidobacterium spp. (Bif164) numbers after treatment ([8]; transverse region, Baseline Log 10 7.54±1.06 CFU/mL): 8.16±0.13 Log 10 CFU/mL
increases in pathogenic Desulfovibrionales [9]: no statistically significant increases
change in Eubacterium rectale between baseline and after treatment [10]: increase
Bacteroides-Prevotella population numbers after treatment ([11]; distal region (V3)): 7.69±0.15 Log10 CFU/mL
Bacteroides-Prevotella (BAC303) population numbers after treatment [11]: 8.47±0.24 Log10 CFU/mL
change in numbers of Faecalibacterium prausnitzii between baseline and after treatment ([12]; 7KLCA: V2 and V3): statistically significant increases
numbers of Faecalibacterium prausnitzii after treatment ([12]; V2, baseline Log10 7.47±0.91 CFU/mL): 8.81±0.09 Log10 CFU/mL
numbers of Faecalibacterium prausnitzii after treatment ([12]; V3, baseline Log10 6.95±0.97 CFU/mL): 8.39±0.22 Log10 CFU/mL
abundance of F. prausnitzii ([13]; V3 (distal colon), from 0.6%): 10%
abundance of Faecalibacterium prausnitzii ([13]; proximal region of the colon (V1), before 4%): 17%
abundance of F. prausnitzii, of total bacterial composition ([13]; transverse region of the colon (V2)): 18%
abundance of Bifidobacterium spp. (Bifidobacterium spp.): 5%
abundance of Eubacterium rectale (Eubacterium rectale): 18%
abundance of Eubacterium eligens (Eubacterium eligens; V1): 2%
abundance of Eubacterium eligens (Eubacterium eligens; V2): 5%
abundance of Eubacterium eligens (Eubacterium eligens; V3): 2%
Dialister pneumosintes, percentage of total bacteria composition (Dialister pneumosintes; distal colon (V3)): 3%
Dialister pneumosintes, percentage of total bacteria composition (Dialister pneumosintes; transverse colon (V2)): 3%
abundance of Bacteroides xylanisolvens [14]: 9%

C[C@H](CCC(=O)O)[C@H]1CC[C@H]2[C@@H]3[C@@H](O)C[C@@H]4C[C@H](O)CC[C@]4(C)[C@H]3CC[C@]12C [UDCA, ursodeoxycholic acid, reference compound]
total bacteria (EUB-I-II-III) after treatment [7]: 8.74±0.50 Log10 CFU/mL
Bacteroides-Prevotella (BAC303) population numbers after treatment [11]: 6.94±0.33 Log10 CFU/mL
